Results from DBAASP.
Values after ≈ are worked out from the molar mass of the structure shown.

How the values were obtained:
Assay in all cases: ≥ marks a high value that may be exact or a test limit, other limits are often not marked, values filed in µg/mL are converted to µM
[1] = system: Candida albicans NCPF 1467
[2] = system: Staphylococcus aureus NCTC 10788
[3] = system: Escherichia coli ATCC 25922
[4] = system: Staphylococcus aureus ATCC 25923
[5] = system: Bacillus subtilis ATCC 6633
[6] = system: Listeria monocytogenes ATCC 7644
[7] = system: Salmonella enterica subsp. enterica serovar Typhi ATCC 6399
Shigella flexneri = system: Shigella flexneri
Streptococcus agalactiae = system: Streptococcus agalactiae
[8] = system: Candida albicans ATCC 20032
[9] = system: Acinetobacter baumannii NM35
[10] = system: Escherichia coli ATCC 25726
[11] = system: Stenotrophomonas maltophilia B32/4
[12] = system: Staphylococcus aureus 127/08
[13] = system: Stenotrophomonas maltophilia B32/1
[14] = system: Acinetobacter baumannii NM8
[15] = system: Staphylococcus epidermidis C621
Escherichia coli DC2 = system: Escherichia coli DC2
Escherichia coli UB1005 = system: Escherichia coli UB1005
[16] = system: Pseudomonas aeruginosa ATCC 27853
[17] = system: Corynebacterium xerosis C875
Bacillus subtilis = system: Bacillus subtilis
Staphylococcus aureus = system: Staphylococcus aureus
Pseudomonas aeruginosa = system: Pseudomonas aeruginosa
Escherichia coli = system: Escherichia coli
Enterobacter cloacae = system: Enterobacter cloacae
[18] = system: Salmonella enterica subsp. enterica serovar Typhi
[19] = system: Candida albicans ATCC 90028
[20] = system: Escherichia coli CVCC 1570
[21] = system: Bacillus pumilus CVCC 709
[22] = system: Staphylococcus aureus CVCC 1882
[23] = system: Micrococcus luteus CVCC 1600
[24] = system: Bacillus subtilis CVCC 717

## CC[C@H](C)[C@H](NC(=O)[C@H](C)NC(=O)CNC(=O)[C@H](CC(C)C)NC(=O)[C@@H](N)Cc1ccccc1)C(=O)N[C@@H](C)C(=O)N[C@@H](C)C(=O)N[C@@H](C)C(=O)N[C@@H](CC(C)C)C(=O)N1CCC[C@H]1C(=O)N[C@@H](Cc1cnc[nH]1)C(=O)N[C@H](C(=O)N[C@H](C(=O)N[C@@H](CC(N)=O)C(=O)N[C@@H](C)C(=O)N[C@H](C(=O)N[C@H](C(=O)N[C@@H](CC(N)=O)C(=O)N[C@@H](C)C(=O)N[C@@H](CC(C)C)C(=O)O)[C@@H](C)O)C(C)C)[C@@H](C)CC)C(C)C [FLGAIAAALPHVINAVTNAL]
[1]
  MIC: ≥ 120 µM
[2]
  MIC: 16 µM (≈ 31.6 µg/mL)

## CC[C@H](C)[C@H](NC(=O)[C@H](CC(C)C)NC(=O)[C@H](CCCCN)NC(=O)[C@H](CC(C)C)NC(=O)[C@H](C)NC(=O)CNC(=O)[C@H](CCCCN)NC(=O)[C@H](C)NC(=O)[C@H](CC(C)C)NC(=O)[C@H](C)NC(=O)CNC(=O)[C@H](Cc1c[nH]c2ccccc12)NC(=O)[C@@H](N)Cc1ccccc1)C(=O)NCC(=O)N[C@H](C(=O)NCC(=O)N[C@@H](CO)C(=O)N[C@@H](CC(C)C)C(=O)N[C@@H](Cc1ccccc1)C(=O)N[C@@H](CO)C(=O)N[C@@H](CO)C(=O)N[C@@H](Cc1ccccc1)C(=O)N[C@@H](CO)C(=O)N[C@@H](CCCCN)C(=O)N[C@@H](CCCCN)C(=O)N[C@@H](CC(=O)O)C(=O)O)C(C)C [FWGALAKGALKLIGVGSLFSSFSKKD]
[3]
  MIC: 37.5 µM (≈ 102 µg/mL)
[4]
  MIC: 75 µM (≈ 205 µg/mL)
[5]
  MIC: ≥ 37.5 µM
[6]
  MIC: ≥ 37.5 µM
[7]
  MIC: ≥ 37.5 µM
Shigella flexneri
  MIC: ≥ 37.5 µM
Streptococcus agalactiae
  MIC: ≥ 37.5 µM

## CC[C@H](C)[C@H](NC(=O)CN)C(=O)NCC(=O)NCC(=O)N[C@@H](C)C(=O)N[C@@H](CC(C)C)C(=O)N[C@@H](CC(C)C)C(=O)N[C@@H](CO)C(=O)N[C@H](C(=O)NCC(=O)N[C@@H](CCCCN)C(=O)N[C@@H](CO)C(=O)N[C@@H](C)C(=O)N[C@@H](CC(C)C)C(=O)N[C@@H](CCCCN)C(=O)NCC(=O)N[C@@H](CC(C)C)C(=O)N[C@H](C(=O)N[C@@H](CCCCN)C(=O)NCC(=O)N[C@@H](CC(C)C)C(=O)N[C@@H](C)C(=O)N[C@@H](CCC(=O)O)C(=O)N[C@@H](Cc1cnc[nH]1)C(=O)N[C@@H](Cc1ccccc1)C(N)=O)[C@@H](C)O)C(C)C [GIGGALLSVGKSALKGLTKGLAEHF]
[3]
  MIC: > 41.2 µM
[4]
  MIC: 30.9 µM (≈ 75 µg/mL)
[8]
  MIC: ≥ 41.2 µM
[5]
  MIC: ≥ 41.2 µM

## CC[C@H](C)[C@@H]1NC(=O)[C@H](CCCCN)NC(=O)[C@@H](NC(=O)[C@H](C)NC(=O)[C@@H](NC(=O)[C@H](CC(C)C)NC(=O)[C@H](CC(=O)O)NC(=O)[C@@H](NC(=O)CNC(=O)[C@H](CC(C)C)NC(=O)[C@H](CCCCN)NC(=O)[C@H](C)NC(=O)[C@H](CC(C)C)NC(=O)[C@H](CC(=O)O)NC(=O)[C@H](CCCCN)NC(=O)CNC(=O)[C@H](CC(C)C)NC(=O)CN)C(C)C)C(C)C)CSSC[C@@H](C(=O)O)NC(=O)[C@H](CCC(N)=O)NC(=O)[C@H](CCCCN)NC(=O)[C@H](CO)NC1=O [GLGKDLAKLGVDLVACKISKQC]
[9]
  MIC: ≥ 200 µM
[10]
  MIC: ≥ 200 µM
[4]
  MIC: > 200 µM
[11]
  MIC: ≥ 200 µM
[12]
  MIC: ≥ 200 µM
[13]
  MIC: ≥ 200 µM
[14]
  MIC: ≥ 200 µM

## CC[C@H](C)[C@H](N)C(=O)N[C@@H](CC(C)C)C(=O)NCC(=O)N[C@@H](CC(C)C)C(=O)N[C@H](C(=O)N[C@H](C(=O)N[C@@H](CO)C(=O)N[C@H](C(=O)N[C@H](C(=O)NCC(=O)N[C@@H](CC(N)=O)C(=O)N[C@H](C(=O)N[C@@H](CC(C)C)C(=O)NCC(=O)NCC(=O)N[C@@H](CC(C)C)C(=O)N[C@@H](CC(C)C)C(=O)N[C@@H](CCCCN)C(=O)N[C@@H](CC(N)=O)C(=O)N[C@@H](CC(C)C)C(N)=O)C(C)C)[C@@H](C)CC)[C@@H](C)O)[C@@H](C)CC)C(C)C [ILGLVISTIGNVLGGLLKNL]
[3]
  MIC: > 49.8 µM
[4]
  MIC: > 49.8 µM
[8]
  MIC: ≥ 49.8 µM
[5]
  MIC: ≥ 49.8 µM

## C[C@H](NC(=O)[C@H](C)NC(=O)[C@H](C)NC(=O)[C@H](Cc1c[nH]c2ccccc12)NC(=O)[C@H](Cc1ccccc1)NC(=O)[C@H](C)NC(=O)[C@H](C)NC(=O)[C@H](C)NC(=O)[C@H](C)NC(=O)[C@H](CCCCN)NC(=O)[C@H](CCCCN)NC(=O)[C@H](CCCCN)NC(=O)[C@H](CCCCN)NC(=O)[C@H](CCCCN)NC(=O)[C@@H](N)CCCCN)C(=O)N[C@@H](C)C(=O)N[C@@H](Cc1ccccc1)C(N)=O [KKKKKKAAAAFWAAAAF]
[15]
  MIC: 8 µM (≈ 14.7 µg/mL)
[3]
  MIC: 16 µM (≈ 29.4 µg/mL)
Escherichia coli DC2
  MIC: 0.5 µM (≈ 0.918 µg/mL)
Escherichia coli UB1005
  MIC: 2 µM (≈ 3.67 µg/mL)
[16]
  MIC: 16 µM (≈ 29.4 µg/mL)
[17]
  MIC: 0.5 µM (≈ 0.918 µg/mL)

## CC(C)C[C@H](NC(=O)[C@H](CCCCN)NC(=O)[C@H](CCCN=C(N)N)NC(=O)[C@H](Cc1ccccc1)NC(=O)[C@H](Cc1ccccc1)NC(=O)[C@H](CCCCN)NC(=O)[C@H](CCCCN)NC(=O)[C@H](Cc1ccccc1)NC(=O)[C@H](CCCN=C(N)N)NC(=O)[C@H](CCCCN)NC(=O)[C@@H](NC(=O)[C@@H](N)CC(C)C)C(C)C)C(=O)N[C@@H](CCCCN)C(=O)N[C@@H](CCCCN)C(=O)N[C@@H](CO)C(=O)N[C@H](C(=O)N[C@@H](CCCCN)C(=O)N[C@@H](CCCCN)C(N)=O)C(C)C [LVKRFKKFFRKLKKSVKK]
Bacillus subtilis
  MIC: 27.7 µM (≈ 64 µg/mL)
[3]
  MIC: 6.93 µM (≈ 16 µg/mL)
[4]
  MIC: 1.73 µM (≈ 4 µg/mL)
Staphylococcus aureus
  MIC: 55.4 µM (≈ 128 µg/mL)
Pseudomonas aeruginosa
  MIC: 3.46 µM (≈ 8 µg/mL)
[16]
  MIC: 27.7 µM (≈ 64 µg/mL)
Escherichia coli
  MIC: 55.4 µM (≈ 128 µg/mL)
Enterobacter cloacae
  MIC: ≥ 55.4 µM
[18]
  MIC: 0.866 µM (≈ 2 µg/mL)
[19]
  MIC: 27.7 µM (≈ 64 µg/mL)

## CC(C)C[C@H](NC(=O)[C@H](CCCCN)NC(=O)[C@H](CCCN=C(N)N)NC(=O)[C@H](Cc1ccccc1)NC(=O)[C@H](Cc1ccccc1)NC(=O)[C@H](CCCCN)NC(=O)[C@H](CCCCN)NC(=O)[C@H](Cc1ccccc1)NC(=O)[C@H](CCCN=C(N)N)NC(=O)[C@H](CCCCN)NC(=O)[C@@H](NC(=O)[C@@H](N)CC(C)C)C(C)C)C(=O)N[C@@H](CCCCN)C(=O)N[C@@H](CCCCN)C(=O)N[C@@H](CO)C(=O)N[C@H](C(=O)N[C@@H](CCCCN)C(N)=O)C(C)C [LVKRFKKFFRKLKKSVK]
Bacillus subtilis
  MIC: 14.7 µM (≈ 32 µg/mL)
[3]
  MIC: 117 µM (≈ 256 µg/mL)
[4]
  MIC: 117 µM (≈ 256 µg/mL)
Staphylococcus aureus
  MIC: 58.7 µM (≈ 128 µg/mL)
Pseudomonas aeruginosa
  MIC: 1.83 µM (≈ 4 µg/mL)
[16]
  MIC: 29.3 µM (≈ 64 µg/mL)
Escherichia coli
  MIC: 14.7 µM (≈ 32 µg/mL)
Enterobacter cloacae
  MIC: 14.7 µM (≈ 32 µg/mL)
[18]
  MIC: 0.917 µM (≈ 2 µg/mL)
[19]
  MIC: 14.7 µM (≈ 32 µg/mL)

## CC(C)[C@H](NC(=O)[C@@H]1CCCN1C(=O)[C@@H]1CCCN1C(=O)[C@@H](NC(=O)[C@@H](N)Cc1ccc(O)cc1)C(C)C)C(=O)N[C@@H](CCC(N)=O)C(=O)N[C@@H](CCCCN)C(=O)N1CCC[C@H]1C(=O)N[C@@H](Cc1cnc[nH]1)C(=O)N1CCC[C@H]1C(=O)N[C@@H](CC(N)=O)C(=O)NCC(=O)N1CCC[C@H]1C(=O)N[C@@H](CCCCN)C(=O)N[C@@H](Cc1ccccc1)C(=O)N1CCC[C@H]1C(=O)N[C@H](C(=O)N[C@@H](Cc1ccccc1)C(=O)N1CCC[C@H]1C(=O)O)[C@@H](C)O [YVPPVQKPHPNGPKFPTFP]
[20]
  MIC: 23.3 µM (≈ 50 µg/mL)
[21]
  MIC: 13.3 µM (≈ 28.6 µg/mL)
[22]
  MIC: ≥ 133 µM
[23]
  MIC: 13.3 µM (≈ 28.6 µg/mL)
[24]
  MIC: 16.7 µM (≈ 35.9 µg/mL)
